Results published in patent US12473250B2, “Molecular design of new antibiotics and antibiotic adjuvants against MCR strains” (priority 2019, dated 2025).

Assays:
various pathogens = test: organism not typed; format: cell-based
Procedure: The MICs of the individual drugs and LC compound in combinations were determined using the broth microdilution technique as recommended by the CLSI whereby the two anti-microbial agents were added in an equal amount. (e.g.: 50 μL of Colistin: 50 μL of LC compounds). Diluted media containing compounds and antibiotics will be serially diluted 2-fold, and LC compounds and antibiotics alone or in combination will be assayed at fixed synergy concentration. In all cases, the lowest concentration at which no visible growth occurred was be recorded to be the MIC value of individual and combined antibacterial agents. The results were obtained after 24 hours of incubation.
Using the combination of LC100 and colistin, the activity of a broad range of strains was further tested (Table 7).

[1] = tested on: ACBA multi-drug resistant strains; test: MIC against multi-drug resistant strains (Table 5); format: cell-based, Acinetobacter baumannii; settings: alone
Procedure: MIC experiments of the antimicrobial agents were determined by a modified broth microdilution method in accordance with the Clinical and Laboratory Standards Institute (CLSI) guidelines using 96 well culture plates. In brief, serial dilutions of all plates were prepared at different concentrations (μg). The inoculum suspension was prepared by adding isolated colonies from a 18-20 hours on TSA plate into phosphate buffer (0.31 mM, pH 7.2) or in water for injection (BBraun) and adjusting the suspension to a turbidity equivalent to 0.5 McFarland Standard. Each well contained a final bacterial concentration of approximately 5×10^5 colony forming units (CFU)/mL. The plate was covered and incubated at 35° C. for 24 hours. […] For the microdilution plates, turbidity in wells can be measured at OD600 using TECAN infinite M200Pro. MIC was determined as […] concentration that gives a 99 percent inhibition.

[2] = 6093560257 [MCR 1+, E. Coli, NDM-1]
[3] = 7103531927 [MCR 1+, E. Coli, KPC+]
[4] = 7113636863 [MCR 1+, E. Coli, NDM-1]

CCN(CC)CCCCOc1ccc(/C=C/C(=O)c2ccc(OCCCCN(CC)CC)c(CC=C(C)C)c2O)cc1 [LC100]
25 µg/mL: MIC ([1]; strain ACBA 1010)
>50 µg/mL: MIC ([1]; strain ACBA ATCC 19606)
✓: Pathogen sensitivity (✓/x), Colistin 0.5 μg+ LC100 1 μg (various pathogens; 6083655967 [MCR 1+, E. Coli]) | Pathogen sensitivity (✓/x), Colistin 0.5 μg+ LC100 2 μg (various pathogens; 6083655967 [MCR 1+, E. Coli]) | Pathogen sensitivity (✓/x), Colistin 1 μg+ LC100 1 μg (various pathogens; 6083655967 [MCR 1+, E. Coli]) | Pathogen sensitivity (✓/x), Colistin 1 μg+ LC100 2 μg (various pathogens; 6083655967 [MCR 1+, E. Coli]) | Pathogen sensitivity (✓/x), Colistin 0.5 μg+ LC100 1 μg (various pathogens; [2]) | Pathogen sensitivity (✓/x), Colistin 0.5 μg+ LC100 2 μg (various pathogens; [2]) | Pathogen sensitivity (✓/x), Colistin 1 μg+ LC100 1 μg (various pathogens; [2]) | Pathogen sensitivity (✓/x), Colistin 1 μg+ LC100 2 μg (various pathogens; [2]) | Pathogen sensitivity (✓/x), Colistin 0.5 μg+ LC100 1 μg (various pathogens; 6123520276 [MCR 1+, E. Coli]) | Pathogen sensitivity (✓/x), Colistin 0.5 μg+ LC100 2 μg (various pathogens; 6123520276 [MCR 1+, E. Coli]) | Pathogen sensitivity (✓/x), Colistin 1 μg+ LC100 1 μg (various pathogens; 6123520276 [MCR 1+, E. Coli]) | Pathogen sensitivity (✓/x), Colistin 1 μg+ LC100 2 μg (various pathogens; 6123520276 [MCR 1+, E. Coli]) | Pathogen sensitivity (✓/x), Colistin 0.5 μg+ LC100 1 μg (various pathogens; 7023436560 [MCR 1+, E. Coli]) | Pathogen sensitivity (✓/x), Colistin 0.5 μg+ LC100 2 μg (various pathogens; 7023436560 [MCR 1+, E. Coli]) | Pathogen sensitivity (✓/x), Colistin 1 μg+ LC100 1 μg (various pathogens; 7023436560 [MCR 1+, E. Coli]) | Pathogen sensitivity (✓/x), Colistin 1 μg+ LC100 2 μg (various pathogens; 7023436560 [MCR 1+, E. Coli]) | Pathogen sensitivity (✓/x), Colistin 0.5 μg+ LC100 1 μg (various pathogens; 7023444207 [MCR 1+, E. Coli]) | Pathogen sensitivity (✓/x), Colistin 0.5 μg+ LC100 2 μg (various pathogens; 7023444207 [MCR 1+, E. Coli]) | Pathogen sensitivity (✓/x), Colistin 1 μg+ LC100 1 μg (various pathogens; 7023444207 [MCR 1+, E. Coli]) | Pathogen sensitivity (✓/x), Colistin 1 μg+ LC100 2 μg (various pathogens; 7023444207 [MCR 1+, E. Coli]) | Pathogen sensitivity (✓/x), Colistin 0.5 μg+ LC100 1 μg (various pathogens; 7023446108 [MCR 1−, E. Coli]) | Pathogen sensitivity (✓/x), Colistin 0.5 μg+ LC100 2 μg (various pathogens; 7023446108 [MCR 1−, E. Coli]) | Pathogen sensitivity (✓/x), Colistin 1 μg+ LC100 1 μg (various pathogens; 7023446108 [MCR 1−, E. Coli]) | Pathogen sensitivity (✓/x), Colistin 1 μg+ LC100 2 μg (various pathogens; 7023446108 [MCR 1−, E. Coli]) | Pathogen sensitivity (✓/x), Colistin 0.5 μg+ LC100 1 μg (various pathogens; 7033607097 [MCR 1−, E. Coli]) | Pathogen sensitivity (✓/x), Colistin 0.5 μg+ LC100 2 μg (various pathogens; 7033607097 [MCR 1−, E. Coli]) | Pathogen sensitivity (✓/x), Colistin 1 μg+ LC100 1 μg (various pathogens; 7033607097 [MCR 1−, E. Coli]) | Pathogen sensitivity (✓/x), Colistin 1 μg+ LC100 2 μg (various pathogens; 7033607097 [MCR 1−, E. Coli]) | Pathogen sensitivity (✓/x), Colistin 0.5 μg+ LC100 1 μg (various pathogens; [3]) | Pathogen sensitivity (✓/x), Colistin 0.5 μg+ LC100 2 μg (various pathogens; [3]) | Pathogen sensitivity (✓/x), Colistin 1 μg+ LC100 1 μg (various pathogens; [3]) | Pathogen sensitivity (✓/x), Colistin 1 μg+ LC100 2 μg (various pathogens; [3]) | Pathogen sensitivity (✓/x), Colistin 0.5 μg+ LC100 1 μg (various pathogens; [4]) | Pathogen sensitivity (✓/x), Colistin 0.5 μg+ LC100 2 μg (various pathogens; [4]) | Pathogen sensitivity (✓/x), Colistin 1 μg+ LC100 1 μg (various pathogens; [4]) | Pathogen sensitivity (✓/x), Colistin 1 μg+ LC100 2 μg (various pathogens; [4]) | Pathogen sensitivity (✓/x), Colistin 0.5 μg+ LC100 1 μg (various pathogens; KLPN ATCC 10031) | Pathogen sensitivity (✓/x), Colistin 0.5 μg+ LC100 1 μg (various pathogens; KLPN CRE 15588) | Pathogen sensitivity (✓/x), Colistin 1 μg+ LC100 1 μg (various pathogens; KLPN CRE 15588) | Pathogen sensitivity (✓/x), Colistin 0.5 μg+ LC100 1 μg (various pathogens; KLPN CRE 16260) | Pathogen sensitivity (✓/x), Colistin 0.5 μg+ LC100 2 μg (various pathogens; KLPN CRE 16260) | Pathogen sensitivity (✓/x), Colistin 0.5 μg+ LC100 5 μg (various pathogens; KLPN CRE 16260) | Pathogen sensitivity (✓/x), Colistin 1 μg+ LC100 1 μg (various pathogens; KLPN CRE 16260) | Pathogen sensitivity (✓/x), Colistin 1 μg+ LC100 2 μg (various pathogens; KLPN CRE 16260) | Pathogen sensitivity (✓/x), Colistin 1 μg+ LC100 5 μg (various pathogens; KLPN CRE 16260) | Pathogen sensitivity (✓/x), Colistin 0.5 μg+ LC100 1 μg (various pathogens; PAE ATCC 15442) | Pathogen sensitivity (✓/x), Colistin 0.5 μg+ LC100 2 μg (various pathogens; PAE ATCC 15442) | Pathogen sensitivity (✓/x), Colistin 1 μg+ LC100 1 μg (various pathogens; PAE ATCC 15442) | Pathogen sensitivity (✓/x), Colistin 0.5 μg+ LC100 1 μg (various pathogens; PAE ATCC BAA-1744) | Pathogen sensitivity (✓/x), Colistin 0.5 μg+ LC100 2 μg (various pathogens; PAE ATCC BAA-1744) | Pathogen sensitivity (✓/x), Colistin 0.5 μg+ LC100 1 μg (various pathogens; PAE DM 4150) | Pathogen sensitivity (✓/x), Colistin 0.5 μg+ LC100 2 μg (various pathogens; PAE DM 4150) | Pathogen sensitivity (✓/x), Colistin 0.5 μg+ LC100 5 μg (various pathogens; PAE DM 4150) | Pathogen sensitivity (✓/x), Colistin 0.5 μg+ LC100 1 μg (various pathogens; PAE DM 23155) | Pathogen sensitivity (✓/x), Colistin 0.5 μg+ LC100 2 μg (various pathogens; PAE DM 23155) | Pathogen sensitivity (✓/x), Colistin 1 μg+ LC100 1 μg (various pathogens; PAE DM 23155) | Pathogen sensitivity (✓/x), Colistin 1 μg+ LC100 2 μg (various pathogens; PAE DM 23155) | Pathogen sensitivity (✓/x), Colistin 0.5 μg+ LC100 1 μg (various pathogens; PAE DM 23257) | Pathogen sensitivity (✓/x), Colistin 0.5 μg+ LC100 2 μg (various pathogens; PAE DM 23257) | Pathogen sensitivity (✓/x), Colistin 0.5 μg+ LC100 5 μg (various pathogens; PAE DM 23257) | Pathogen sensitivity (✓/x), Colistin 1 μg+ LC100 1 μg (various pathogens; PAE DM 23257) | Pathogen sensitivity (✓/x), Colistin 0.5 μg+ LC100 1 μg (various pathogens; PAE DM 23376) | Pathogen sensitivity (✓/x), Colistin 0.5 μg+ LC100 2 μg (various pathogens; PAE DM 23376) | Pathogen sensitivity (✓/x), Colistin 0.5 μg+ LC100 1 μg (various pathogens; PAE DR 5790) | Pathogen sensitivity (✓/x), Colistin 0.5 μg+ LC100 1 μg (various pathogens; PAE DU 14476) | Pathogen sensitivity (✓/x), Colistin 0.5 μg+ LC100 2 μg (various pathogens; PAE DU 14476) | Pathogen sensitivity (✓/x), Colistin 0.5 μg+ LC100 5 μg (various pathogens; PAE DU 14476) | Pathogen sensitivity (✓/x), Colistin 1 μg+ LC100 1 μg (various pathogens; PAE DU 14476)
50 µg/mL: MIC ([1]; strain ACBA 1012) | MIC ([1]; strain ACBA 43357)
